The structures appear in SMILES notation.

The IC50 is the concentration that inhibits the measured activity by half.

The target in the assay is Recombinant human KIF18A (1-467 His-tagged) protein (Homo sapiens (Human), UniProt Q8NI77). As to the kind of experiment: KIF18A Enzyme Assay: microtubule-stimulated ATPase activity (ADP-Glo). Particulars: read-out: KIF18A ATPase IC50; 30 nM KIF18A, 30 μg/mL pig microtubules, ATP at Km 75 μM, ADP-Glo luminescence. On the technique in general: ADP-Glo first removes unused ATP, then detects ADP through luciferase.
Recombinant human KIF18A (1-467 His-tagged) protein, sequence (Q8NI77 1-467): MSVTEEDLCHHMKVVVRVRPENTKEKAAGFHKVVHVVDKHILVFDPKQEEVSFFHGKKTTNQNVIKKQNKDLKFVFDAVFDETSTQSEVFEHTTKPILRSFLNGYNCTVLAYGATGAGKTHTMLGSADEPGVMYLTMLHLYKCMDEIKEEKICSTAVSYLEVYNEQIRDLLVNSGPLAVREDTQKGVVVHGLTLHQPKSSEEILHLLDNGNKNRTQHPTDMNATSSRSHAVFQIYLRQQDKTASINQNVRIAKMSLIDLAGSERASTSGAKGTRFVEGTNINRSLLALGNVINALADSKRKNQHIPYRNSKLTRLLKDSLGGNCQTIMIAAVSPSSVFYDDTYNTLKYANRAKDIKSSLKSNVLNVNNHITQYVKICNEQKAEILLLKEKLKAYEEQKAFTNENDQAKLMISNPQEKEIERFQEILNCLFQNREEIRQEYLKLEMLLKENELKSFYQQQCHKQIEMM
Recombinant human KIF18A (1-467 His-tagged) protein, sequence (P02550 whole entry partner): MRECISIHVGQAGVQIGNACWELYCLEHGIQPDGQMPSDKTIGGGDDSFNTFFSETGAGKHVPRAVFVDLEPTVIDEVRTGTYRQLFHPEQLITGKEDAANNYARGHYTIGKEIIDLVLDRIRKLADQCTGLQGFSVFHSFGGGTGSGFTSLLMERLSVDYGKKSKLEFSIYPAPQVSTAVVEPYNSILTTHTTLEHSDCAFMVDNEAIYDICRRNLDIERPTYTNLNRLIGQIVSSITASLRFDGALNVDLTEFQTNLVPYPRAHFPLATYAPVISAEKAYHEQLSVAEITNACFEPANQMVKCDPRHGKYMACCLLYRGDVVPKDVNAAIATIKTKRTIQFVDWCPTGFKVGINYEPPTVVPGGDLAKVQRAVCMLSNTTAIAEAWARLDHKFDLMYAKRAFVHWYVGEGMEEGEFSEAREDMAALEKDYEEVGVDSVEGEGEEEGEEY
Recombinant human KIF18A (1-467 His-tagged) protein, sequence (P02554 whole entry partner): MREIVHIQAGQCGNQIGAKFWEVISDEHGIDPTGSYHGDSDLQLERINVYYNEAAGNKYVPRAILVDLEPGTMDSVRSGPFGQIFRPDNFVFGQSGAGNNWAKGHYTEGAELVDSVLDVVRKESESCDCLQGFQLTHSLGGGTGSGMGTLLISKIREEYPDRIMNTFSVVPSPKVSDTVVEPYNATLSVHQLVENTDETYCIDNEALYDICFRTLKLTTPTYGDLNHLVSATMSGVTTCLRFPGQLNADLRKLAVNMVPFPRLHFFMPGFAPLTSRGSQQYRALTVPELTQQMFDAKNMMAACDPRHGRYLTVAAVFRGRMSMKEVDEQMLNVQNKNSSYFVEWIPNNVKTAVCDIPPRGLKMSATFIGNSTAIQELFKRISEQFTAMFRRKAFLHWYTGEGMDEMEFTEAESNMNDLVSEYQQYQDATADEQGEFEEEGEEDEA
Excerpt: KIF18A Enzyme Assay: Microtubule-stimulated ATPase activity assay is used to measure KIF18A enzyme activity after treatment with compound. Compounds were 2-fold serially diluted in DMSO (Sigma Inc) over 22-point concentration range. […] The assay measures ADP formed from the ATPase reaction.
With `Cc1cc(NC(=O)c2ccc(S(=O)(=O)[C@@H]3COC[C@H]3O)cc2N2CCC3(CC2)CC3)nc(N2CCC(F)(F)CC2)n1` [Example 14-7, N-(2-(4,4-Difluoropiperidin-1-yl)-6-methylpyrimidin-4-yl)-4-(((3R,4R)-4-hydroxytetrahydrofuran-3-yl)sulfonyl)-2-(6-azaspiro[2.5]octan-6-yl)benzamide], the IC50 worked out at 94 nM. As for `Cc1cc(NC(=O)c2ccc(NS(=O)(=O)C3(C)CC3)cc2N2CCC3(CC2)CC3)nc(N2CC(F)(F)C2)n1` [Example 11-74, N-(2-(3,3-Difluoroazetidin-1-yl)-6-methylpyrimidin-4-yl)-4-((1-methylcyclopropane)-1-sulfonamido)-2-(6-azaspiro[2.5]octan-6-yl)benzamide], the figure is 94 nM; as for `Cc1cc(NC(=O)c2ccc(NS(=O)(=O)[C@@H](C)CO)cc2N2CCC3(CC2)CC3)nc(N2CCC(F)CC2)n1` [Example 6-25-1, (S)-N-(2-(4-fluoropiperidin-1-yl)-6-methylpyrimidin-4-yl)-4-((2-hydroxy-1-methylethyl)sulfonamido)-2-(6-azaspiro[2.5]octan-6-yl)benzamide], 47 nM.

As to `Cc1cc(NC(=O)c2ccc(NS(=O)(=O)C(C)(C)C)cc2N2CCC3(CC2)CC3)nc(N2CCC(F)(F)CC2)n1` [Example 6-14, N-(2-(4,4-Difluoropiperidin-1-yl)-6-methylpyrimidin-4-yl)-4-((1,1-dimethylethyl)sulfonamido)-2-(6-azaspiro[2.5]octan-6-yl)benzamide], the IC50 worked out at 413 nM. Under `N=S(=O)(c1ccc(C(=O)Nc2ccnc(N3CCC(F)(F)CC3)c2)c(N2CCC3(CC2)CC3)c1)C1CC1` (centres unmarked) [Example 19-6, 4-(Cyclopropanesulfonimidoyl)-N-(2-(4,4-difluoropiperidin-1-yl)pyridin-4-yl)-2-(6-azaspiro[2.5]octan-6-yl)benzamide] stands 42 nM; under `Cc1cc(NC(=O)c2ccc(NS(=O)(=O)CCO)cc2N2CCC3(CC2)CC3)nc(N2CCC2)n1` [Example 11-19, N-(2-(Azetidin-1-yl)-6-methylpyrimidin-4-yl)-4-((2-hydroxyethyl)sulfonamido)-2-(6-azaspiro[2.5]octan-6-yl)benzamide], 205 nM; under `Cc1cc(NC(=O)c2ccc(NS(C)(=O)=O)cc2N2CCC3(CC2)CC3)nc(N2CCO[C@H](C)C2)n1` [Example 6-5, (R)-N-(6-Methyl-2-(2-methylmorpholino)pyrimidin-4-yl)-4-(methylsulfonamido)-2-(6-azaspiro[2.5]octan-6-yl)benzamide], 120 nM. Under `Cc1cc(NC(=O)c2ccc(NS(=O)(=O)C(C)C)cc2N2CCC3(CC2)CC3)nc(N2CC(F)(F)C2)n1` [Example 11-75, N-(2-(3,3-Difluoroazetidin-1-yl)-6-methylpyrimidin-4-yl)-4-((1-methylethyl)sulfonamido)-2-(6-azaspiro[2.5]octan-6-yl)benzamide] stands 56 nM; under `Cc1cc(NC(=O)c2ccc(NS(=O)(=O)CCO)cc2N2CCC3(CC2)CC3)nc(N2[C@H](C)COC[C@@H]2C)n1` [Example 11-48, N-(2-((3S,5R)-3,5-Dimethylmorpholino)-6-methylpyrimidin-4-yl)-4-((2-hydroxyethyl)sulfonamido)-2-(6-azaspiro[2.5]octan-6-yl)benzamide], 95 nM. As for `CC[S@@](=N)(=O)c1ccc(C(=O)Nc2cc(C)nc(N3CCC(F)(F)CC3)n2)c(N2CCC3(CC2)CC3)c1` [Example 19-3, 2-(6-Azaspiro[2.5]octan-6-yl)-N-(2-(4,4-difluoro-1-pieridinyl)-6-methyl-4-pyrimidinyl)-4-(S-ethylsulfonimidoyl)benzamide], the figure is 78 nM; as for `Cc1cc(NC(=O)c2ccc(S(=O)(=O)N[C@@H](C)CO)cc2N2CCC3(CC2)CC3)nc(N2CCC(F)(F)CC2)n1` [Example 17-7, (S)-N-(2-(4,4-Difluoropiperidin-1-yl)-6-methylpyrimidin-4-yl)-4-(N-(1-hydroxypropan-2-yl)sulfamoyl)-2-(6-azaspiro[2.5]octan-6-yl)benzamide], 147 nM.

For the origin of these results see patent US11236069B2, “KIF18A inhibitors” (AMGEN INC., priority 2018, dated 2022).
